Laboratory results taken from a compilation of properties of binary mixtures (doi:10.1016/j.molliq.2022.119221).

Assay: xn = mol fraction of the nth substance listed
Details: 100 kPa

OCCO + CCCC[n+]1ccn(C)c1.O=S(=O)([N-]S(=O)(=O)C(F)(F)F)C(F)(F)F
viscosity [mPa·s]
Details	293.15 K	298.15 K	303.15 K	308.15 K	313.15 K	318.15 K	323.15 K	328.15 K	333.15 K	338.15 K
x2 = 0.1	30.7	24.6	19.2	15.2	12.5	10.4	8.87	7.66	6.65	5.82
x2 = 0.2002	–	–	21.5	17.6	14.8	12.5	10.7	9.27	–	7.1
x2 = 0.2997	37.9	29.2	22.8	–	–	–	–	9.9	8.68	7.64
x2 = 0.4015	–	31.4	24.5	19.7	16.5	14.1	12.1	–	9.16	8.01
x2 = 0.4993	42	32.5	25.1	20.4	17.2	14.7	12.6	10.9	9.57	8.48
x2 = 0.6007	43	33.3	26.2	21.7	17.8	15	13	–	9.8	8.61
x2 = 0.7003	42	33.7	26.3	–	18.4	–	13.4	11.6	10.1	8.93
x2 = 0.7993	42.4	34.6	28.2	23.8	20.2	17.2	–	12.9	–	–
x2 = 0.9	48.7	39.8	32.8	27.3	23.1	19.7	–	–	12.9	11.4
